Measurements published in patent EP4667468A1, “COMPOUND FOR INHIBITING NLRP3, PREPARATION METHOD, AND USE” (Shenzhen Zhongge Biological Technology Co., Ltd., priority 2023, dated 2024).

Assays:
[1] = target: IL-1β secretion of THP-1 cells (Homo sapiens, UniProt Q96P20); assay: Effect of NLRP3 inhibitor on IL-1β secretion of THP-1 cells (AlphaLISA); type: cell-based; conditions: PMA 50nM, LPS 100ng/ml, Nigericin 10µM, IL-1β in supernatant
Description: This experiment used the PerkinElmer AlphaLISA_human_IL1β kit (AL220 C/F). The detection buffer was RPMI-1640+10FBS. AlphaLISA Immunoassay Buffer, AlphaLISA Anti-IL1β Acceptor beads, Streptavidin (SA)-coated Donor beads, and Biotinylated Antibody Anti-IL1β were all included in the kit.
The density of THP1 cells was adjusted to 4×10^5 cells/mL, PMA (final concentration 50nM) was added, inoculated into 96-well flat-bottom plates at 200µL/well, and stimulated overnight at 37°C, 5% CO2 (try to <16h). The next day, the supernatant was discarded, and the flat washed twice with DPBS (200µL/time). Then LPS solution (final concentration of 100ng/ml) was added at 198µL/well , incubated at 37°C, 5% CO2 for 3h. 1µL of the corresponding concentration of compounds was added to each well according to the experimental MAP, incubated at 37°C, 5% CO2 for 1h. 1µL Nigericin (final concentration of 10µM) was added to each well, incubated overnight at 5% CO2 (>18h). On the third day, 5µL of supernatant was taken, diluted 20 times, and the content of IL-Iβ in the supernatant was detected by Human Interleukin 1 beta (IL1β) Kit. Envision was used to read the AlphaLISA test value of Ex = 680/ Em = […]. GraphPad Prism 9.5.0 was used to analyze the data, and the IC50 value of the compound for IL-Iβ antagonism was fitted by four-parameter Logistic. […] Table 2: Results of IC50 experiments using THP-1 cells to detect NLRP3 inhibitors

[2] = Liver microsome metabolic stability, human; type: in vitro ADME, humans; conditions: human (h) liver microsomes 0.5 mg/ml, 45 min; read-out: LMS (h,r,m) (% rem, 45 min)
Description: (§1) Purpose: This experiment investigates the metabolic stability of the compound in liver microsomes of different species such as humans, mice and rats, and the residual content of the test compound after incubation with liver microsomes of different species such as humans, mice and rats.
(§2) Preparation of 500 µM solution of target compound and positive control: 5 µL of each 10 mM stock solution was taken, added to 95 µL acetonitrile, and mixed for 30 s;
(§3) Preparation of 6 mM NADPH solution: 100 mM Stock aliquot liquid was diluted with Mg-Mg-K-Buffer.
(§4) • 2.1.1 Liver microsome solution: 18.75 µL of 20 mg/mL HLM, RLM, MLM, DLM, MOLM (final concentration: 0.5 mg/ml) were taken and placed them in each well of a 96-well plate; • 2.1.2 1.5 µL of 500 µM solution of each compound was added respectively; • 2.1.3 479.8 µL of phosphate buffer was taken, then added to each compound well, and mixed at 1000 rpm in an oscillating mixer for 10 s.
(§5) 30 µL of the above samples were taken and aliquoted to a new 96-well plates respectively (including NADPH group, n=2, and no NADPH group at 0 and 45 min, n=1), marked as 0, 5, 15, 30 and 45 min; […]
(§6) The slope was calculated based on the LN value of the compound concentration percentage and time as the coordinate axis, and the residual content of the compound after incubation with liver microsomes was calculated based on the slope and formula. […]

[3] = Liver microsome metabolic stability, rat; type: in vitro ADME, rats; conditions: rat (r) liver microsomes 0.5 mg/ml, 45 min; read-out: LMS (h,r,m) (% rem, 45 min)
Description: as §1, §2, §3, §4, §5, §6

[4] = Liver microsome metabolic stability, mouse; type: in vitro ADME, mice; conditions: mouse (m) liver microsomes 0.5 mg/ml, 45 min; read-out: LMS (h,r,m) (% rem, 45 min)
Description: as §1, §2, §3, §4, §5, §6

[5] = tested on: iodoacetic acid (MIA)-induced SD rat knee osteoarthritis model; assay: Efficacy on iodoacetic acid-induced SD rat knee osteoarthritis model; type: in vivo, SD rats; conditions: 30mg/kg orally once a day from Day 7 to Day 42; for widening of the knee joints: compared with the model blank control group, 21 days to 42 days after modeling
Description: Purpose: Evaluate the efficacy of MCC950 (Positive reference compound) and compound 111 of the present invention on iodoacetic acid (MIA)-induced SD rat knee osteoarthritis model. Experimental materials: Experimental male SD rats, 4 weeks old. Model induction began after the experimental animals were adapted to the animal environment for 7 days. Day 0, the rats were anesthetized, the hair around the left knee joint was removed, and the skin was disinfected. The left leg was flexed 90° to expose the patellar platform. The depression in the middle of the platform was touched by hand to find the femoral condyle, patella and ligament. The syringe needle was inserted from the bottom of the patella on both sides of the patellar ligament to the direction of the femoral condyle. When a clear sense of empty space was felt, 50µL of iodoacetic acid solution was injected. Day 7 Grouping was performed according to the width of the knee joint on the induced side. The groups were: normal control group (healthy control without modeling, 5% DMSO+10% Solutol+85% Saline), model blank control group (5% DMSO+10% Solutol+85% Saline), MCC950 30mg/kg, and compound 111 of the present invention 30mg/kg. Starting from Day 7, the normal control group and the model blank control group were given the solvent (5% DMSO+10% Solutol+85% Saline) orally once a day, and the other groups were given the corresponding compounds orally once a day until the end of the administration on Day 42. The knee joint width and body weight of the rats were measured once on Day 7, 14, 21, 28, 35, and 42. This experiment tested the efficacy of MCC950 (Positive compound) and compound 111 of the present invention on the SD rat knee osteoarthritis model induced by iodoacetic acid (MIA), see Figures 1 and 2.

Sequence of IL-1β secretion of THP-1 cells (Q96P20 whole entry): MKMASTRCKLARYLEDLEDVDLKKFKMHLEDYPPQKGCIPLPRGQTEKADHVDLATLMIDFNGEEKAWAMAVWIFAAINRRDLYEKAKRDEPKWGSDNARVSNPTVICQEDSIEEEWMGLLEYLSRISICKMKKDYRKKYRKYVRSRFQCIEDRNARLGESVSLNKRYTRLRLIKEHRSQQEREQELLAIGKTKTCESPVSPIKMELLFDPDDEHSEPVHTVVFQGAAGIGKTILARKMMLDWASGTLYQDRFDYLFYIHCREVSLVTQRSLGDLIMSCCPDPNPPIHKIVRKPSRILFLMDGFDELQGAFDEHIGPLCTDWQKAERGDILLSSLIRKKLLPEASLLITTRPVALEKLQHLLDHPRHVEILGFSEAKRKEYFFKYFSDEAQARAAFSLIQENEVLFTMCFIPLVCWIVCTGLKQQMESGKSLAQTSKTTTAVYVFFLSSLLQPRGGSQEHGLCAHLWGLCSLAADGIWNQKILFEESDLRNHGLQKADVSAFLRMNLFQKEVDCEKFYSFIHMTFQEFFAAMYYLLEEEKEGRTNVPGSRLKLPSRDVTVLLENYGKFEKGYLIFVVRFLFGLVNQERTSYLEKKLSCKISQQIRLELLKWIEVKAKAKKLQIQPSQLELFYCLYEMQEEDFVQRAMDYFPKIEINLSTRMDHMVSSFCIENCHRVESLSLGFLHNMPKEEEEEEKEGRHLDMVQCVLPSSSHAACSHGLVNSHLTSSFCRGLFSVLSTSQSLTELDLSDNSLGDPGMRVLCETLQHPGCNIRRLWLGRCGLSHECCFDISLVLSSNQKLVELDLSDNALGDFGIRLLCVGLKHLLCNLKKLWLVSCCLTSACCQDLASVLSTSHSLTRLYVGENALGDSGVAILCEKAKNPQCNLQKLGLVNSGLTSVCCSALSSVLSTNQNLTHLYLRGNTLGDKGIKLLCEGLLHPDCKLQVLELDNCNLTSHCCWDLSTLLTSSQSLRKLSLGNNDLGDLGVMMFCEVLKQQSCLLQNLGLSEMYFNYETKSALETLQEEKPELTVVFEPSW

SMILES | IC50 [1] [nM] | other results
CCN1CCC[C@@H](n2ccc3cc(-c4c(C)cc(C(F)(F)F)cc4O)nnc32)C1 [11-a] | < 50 | 
CCN1CCC[C@@H](N2CC(=O)Nc3cc(-c4c(C)cc(C(F)(F)F)cc4O)nnc32)C1 [12-a] | < 50 | 
Cc1cc(C(F)(F)F)cc(O)c1-c1ccc2[nH]c(NCC(C)(C)O)nc2n1 [Compound 6] | 100 to 500 | 
CC(=O)N1CCOC[C@H]1CNc1nc2nc(-c3c(C)cc(C(F)(F)F)cc3O)ccc2o1 [Compound 111] |  | remaining at 0.75 h, 1 µM [2]: 93.2%; remaining at 0.75 h, 1 µM [3]: 82.5%; remaining at 0.75 h, 1 µM [4]: 91.3%; body weight of the rats [5]: without affecting the body weight of the rats; widening of the knee joints [5]: significantly inhibit the widening of the knee joints
CC(C)(O)c1coc(S(=O)(=O)NC(=O)Nc2c3c(cc4c2CCC4)CCC3)c1 [MCC950, reference compound] |  | widening of the knee joints [5]: significantly inhibit the widening of the knee joints
Cc1cc(C(F)(F)F)cc(O)c1-c1ccc2oc(N3CCOC[C@H]3C)nc2n1 [compound 371] | 50 to 100 | 
Oc1cc(Cl)cc(O)c1-c1ccc2oc(N3CCOCC3)nc2n1 [compound 376] | < 50 | 
Cc1cc(C(F)(F)F)cc(O)c1-c1ccc2oc(N3CC4CCC(C3)O4)nc2n1 [compound 381] | 100 to 500 | 
Cc1cc(C(F)(F)F)cc(O)c1-c1ccc2oc(N3CCS(=O)(=O)CC3)nc2n1 [compound 384] | < 50 | 
Cc1cc(Cl)cc(O)c1-c1ccc2oc(N3CCS(=O)(=O)CC3)nc2n1 [compound 387] | 50 to 100 | 
CCS(=O)(=O)N1CCN(c2nc3nc(-c4c(C)cc(C(F)(F)F)cc4O)ccc3o2)CC1 [compound 388] | 50 to 100 | 
Cc1cc(C(F)(F)F)cc(O)c1-c1ccc2oc(N3CCN(S(C)(=O)=O)CC3)nc2n1 [compound 390] | < 50 | 
Cc1cc(C(F)(F)F)cc(O)c1-c1ccc2oc(N3CCN(S(=O)(=O)C4CC4)CC3)nc2n1 [compound 392] | < 50 | 
CCS(=O)(=O)N1CCN(c2nc3nc(-c4c(C)cc(C(F)(F)F)cc4O)ccc3o2)C[C@@H]1C [compound 394] | 50 to 100 | 
CCN1C[C@H](F)C[C@@H](Nc2nc3nc(-c4c(C)cc(C(F)(F)F)cc4O)ccc3o2)C1 [compound 397] | 100 to 500 | 
Cc1cc(C(F)(F)F)cc(O)c1-c1ccc2oc(N[C@@H]3CCCN(C4CC4)C3)nc2n1 [compound 399] | < 50 | 
Cc1cc(C(F)(F)F)cc(O)c1-c1ccc2oc(N[C@@H]3CCCN(C(C)C)C3)nc2n1 [compound 400] | < 50 | 
Cc1cc(C(F)(F)F)cc(O)c1-c1ccc2oc(N[C@@H]3CCCN(CCO)C3)nc2n1 [compound 404] | < 50 | 

SMILES | IC50 [1] [nM] | other results
Cc1cc(C(F)(F)F)cc(O)c1-c1ccc2oc(NC[C@@H](C)O)nc2n1 [compound 413] | 50 to 100 | 
Cc1cc(C(F)(F)F)cc(O)c1-c1ccc2nc(N3CCS(=O)(=O)CC3)nn2n1 [compound 422] | 100 to 500 | 
Cc1cc(C(F)(F)F)cc(O)c1-c1ccc2nc(N3CCOCC3)nn2n1 [compound 423] | 100 to 500 | 
Cc1cc(C(F)(F)F)cc(O)c1-c1cc(C)c2nc(N3CCOCC3)nn2n1 [compound 424] | < 50 | 
Cc1cc(C(F)(F)F)cc(O)c1-c1ccn2nc(N3CCOCC3)nc2n1 [compound 426] | < 50 | 
CCN1CCC[C@@H](Nc2nc3ccc(-c4c(C)cc(C(F)(F)F)cc4O)nn3n2)C1 [compound 439] | < 50 | 
Cc1cc(C(F)(F)F)cc(O)c1-c1cc(C)n2nc(N3CCOCC3)nc2n1 [compound 440] | 50 to 100 | 
CC(=O)NC[C@@H]1COCCN1c1nc2nc(-c3c(C)cc(C(F)(F)F)cc3O)cc(C)n2n1 [compound 441] | < 50 | 
CC(=O)NC[C@@H]1COCCN1c1nc2c(C)cc(-c3c(C)cc(C(F)(F)F)cc3O)nn2n1 [compound 442] | < 50 | 
Cc1cc(C(F)(F)F)cc(O)c1-c1cc(C)n2nc(N[C@@H]3CCCN(C)C3)nc2n1 [compound 443] | < 50 | 
Cc1cc(C(F)(F)F)cc(O)c1-c1ccn2nc(N[C@@H]3CCCN(C)C3)nc2n1 [compound 444] | < 50 | 
Cc1cc(C(F)(F)F)cc(O)c1-c1ccc2nc(N[C@@H]3CCCN(C)C3)nn2n1 [compound 445] | < 50 | 
Cc1cc(C(F)(F)F)cc(O)c1-c1cc(C)c2nc(N[C@@H]3CCCN(C)C3)nn2n1 [compound 446] | < 50 | 
CCN1CCC[C@@H](Nc2nc3c(C)cc(-c4c(C)cc(C(F)(F)F)cc4O)nn3n2)C1 [compound 447] | < 50 | 
CCN1CCC[C@@H](Nc2nc3nc(-c4c(C)cc(C(F)(F)F)cc4O)ccn3n2)C1 [compound 448] | < 50 | 
Cc1cc(C(F)(F)F)cc(O)c1-c1cc(C)n2nc(N[C@H]3CCCN(CCO)C3)nc2n1 [compound 460] | < 50 | 
CCN1CCC[C@H](Nc2nc3nc(-c4c(C)cc(C(F)(F)F)cc4O)cc(C)n3n2)C1 [compound 462] | < 50 | 
